Measured values reported in ChEMBL document CHEMBL1149877, “Synthesis and biological activities of 2-oxocycloalkylsulfonamides” (Bioorg Med Chem, 2008).
≈ marks a conversion by molar mass, not a printed value.

Columns and labels:
HL-60 = experiment: Antitumor activity against human HL60 cells at 100 ug/mL by MTT method; type: functional
BGC-823 = experiment: Antitumor activity against human BGC823 cells at 100 ug/mL by SRB method; type: functional
Sclerotinia sclerotiorum = experiment: Antifungal activity against Sclerotinia sclerotiorum; type: functional, organism-based
Bel-7402 = experiment: Antitumor activity against human Bel7402 cells at 100 ug/mL by SRB method; type: functional
Botrytis cinerea = experiment: Antifungal activity against Botrytis cinerea Pers; type: functional, organism-based
KB = experiment: Antitumor activity against human KB cells at 100 ug/mL by SRB method; type: functional

SMILES	EC50 (Sclerotinia sclerotiorum)	EC50 (Botrytis cinerea)	inhibition at 100 µg/mL (HL-60)	inhibition at 100 µg/mL (BGC-823)	inhibition at 100 µg/mL (Bel-7402)	inhibition at 100 µg/mL (KB)
O=C1CCCCC1S(=O)(=O)N1CCOCC1 (centres undefined)	331 µg/mL (≈ 1340 µM)	85.2 µg/mL (≈ 345 µM)	11%	21.3%	6.01%	-4.35%
O=C1CCCCCC1S(=O)(=O)Nc1cc(C(F)(F)F)cc(C(F)(F)F)c1 (centres undefined)	8.05 µg/mL (≈ 20 µM)	2.43 µg/mL (≈ 6.02 µM)	95.8%	57%	45.3%	59%
O=C1CCCCC1S(=O)(=O)Nc1cc(C(F)(F)F)ccc1C(F)(F)F (centres undefined)	70.5 µg/mL (≈ 181 µM)	3.66 µg/mL (≈ 9.4 µM)	95.7%	57.7%	68.3%	68.6%
O=C1CCCCC1S(=O)(=O)Nc1cc(C(F)(F)F)cc(C(F)(F)F)c1 (centres undefined)	24.1 µg/mL (≈ 62 µM)	3.96 µg/mL (≈ 10.2 µM)	95.9%	70.8%	66.9%	76%
N#Cc1c(Cl)c(Cl)c(Cl)c(C#N)c1Cl [CHLOROTHALONIL]	7.16 µg/mL (≈ 26.9 µM)					
O=C1CCCCC1S(=O)(=O)Nc1cccc(C(F)(F)F)c1 (centres undefined)	144 µg/mL (≈ 448 µM)	85.2 µg/mL (≈ 265 µM)	17%	21.6%	11.4%	-6.3%
CC12CC1(C)C(=O)N(c1cc(Cl)cc(Cl)c1)C2=O (centres undefined) [PROCYMIDONE]		2.45 µg/mL (≈ 8.62 µM)				
COc1cc(OC)nc(NS(=O)(=O)C2CCCCC2=O)n1 (centres undefined)	197 µg/mL (≈ 626 µM)	28.6 µg/mL (≈ 90.8 µM)	2.62%	26.4%	39.3%	2.73%

Further lines, with some results ahead:

EC50 (Sclerotinia sclerotiorum)	EC50 (Botrytis cinerea)	SMILES	inhibition at 100 µg/mL (HL-60)	inhibition at 100 µg/mL (BGC-823)	inhibition at 100 µg/mL (Bel-7402)	inhibition at 100 µg/mL (KB)
47.5 µg/mL (≈ 134 µM)	2.12 µg/mL (≈ 5.96 µM)	O=C1CCCCC1S(=O)(=O)Nc1ccc(Cl)cc1C(F)(F)F (centres undefined)	78.6%	36.4%	20.9%	11.2%
59.3 µg/mL (≈ 211 µM)	24.2 µg/mL (≈ 86 µM)	Cc1cccc(NS(=O)(=O)C2CCCCC2=O)c1C (centres undefined)	9.38%	24.5%	21.8%	-20.6%
47.6 µg/mL (≈ 161 µM)	11.6 µg/mL (≈ 39.3 µM)	Cc1cccc(NS(=O)(=O)C2CCCCCC2=O)c1C (centres undefined)	22.9%	23.8%	12.1%	2.01%
69.4 µg/mL (≈ 241 µM)	35.2 µg/mL (≈ 122 µM)	O=C1CCCCC1S(=O)(=O)Nc1ccccc1Cl (centres undefined)	0.29%	29.2%	1.98%	-10.1%
116 µg/mL (≈ 434 µM)	21.2 µg/mL (≈ 79.4 µM)	Cc1ccc(NS(=O)(=O)C2CCCCC2=O)cc1 (centres undefined)	-3.55%	32%	27.5%	-22.2%
112 µg/mL (≈ 397 µM)	17 µg/mL (≈ 60.3 µM)	Cc1ccc(NS(=O)(=O)C2CCCCC2=O)c(C)c1 (centres undefined)	12.2%	15.6%	0.52%	7.97%
137 µg/mL (≈ 480 µM)	37.7 µg/mL (≈ 132 µM)	Cc1cc(F)ccc1NS(=O)(=O)C1CCCCC1=O (centres undefined)	-0.99%	28.7%	3.22%	-3.72%
53.4 µg/mL (≈ 186 µM)	17 µg/mL (≈ 59 µM)	O=C1CCCCC1S(=O)(=O)Nc1ccc(Cl)cc1 (centres undefined)	-13%	16%	4.47%	-3.83%
16.4 µg/mL (≈ 48.7 µM)	2.38 µg/mL (≈ 7.08 µM)	O=C1CCCCCC1S(=O)(=O)Nc1ccc(Cl)c(Cl)c1 (centres undefined)	15%	28.9%	4.03%	-6.3%
47.8 µg/mL (≈ 144 µM)	50.6 µg/mL (≈ 152 µM)	O=C1CCCCC1S(=O)(=O)Nc1ccccc1Br (centres undefined)	15.3%	29.6%	22.1%	-14.4%
24.2 µg/mL (≈ 75.2 µM)	7.23 µg/mL (≈ 22.4 µM)	O=C1CCCCC1S(=O)(=O)Nc1ccc(Cl)c(Cl)c1 (centres undefined)	13.5%	5.54%	1.39%	17.8%
